Paper PMC8483441 (Journal of Medicinal Chemistry, 2021)
Values after ≈ are worked out from the molar mass of the structure shown. Where two headings read alike, the source gives them in different places. Square brackets hold non-standard residues; d marks the D form. Ends that are not written are not given here. Peptide text beside a SMILES is read from it. dOrn = NCCC[C@@H](N)C(=O)O; Orn = NCCC[C@H](N)C(=O)O

Assays:
[1] = test system: Pseudomonas sp.; assay: MIC, broth microdilution; assay type: cell-based; conditions: Pseudomonas sp. ATCC 15915; Mueller-Hinton medium, 5 × 10^5 CFU/mL, 37 °C, 24 h; average of three independent studies
Protocol: (§1) Human serum was purchased from Sigma (St Louis, USA).
(§2) Incubations were kept at 37 °C for 24 h. Results are the average of three independent studies.

[2] = test system: Pseudomonas sp.; assay: Minimum bactericidal concentration (MBC); assay type: cell-based; conditions: 50 μL from MIC wells seeded into Petri plates, 24 h; lowest concentration without detectable growth
Protocol: as §2

[3] = test system: P. aeruginosa 827632; assay: MIC, clinical bacterial strain; assay type: cell-based
Protocol: as §1, §2

[4] = test system: A. baumannii 3880; assay: MIC, clinical bacterial strain; assay type: cell-based
Protocol: as §1, §2

[5] = test system: A. baumannii 3878; assay: MIC, clinical bacterial strain; assay type: cell-based
Protocol: as §1, §2

[6] = test system: P. aeruginosa 827651; assay: MIC, clinical bacterial strain; assay type: cell-based
Protocol: as §1, §2

[7] = test system: A. baumannii 3862; assay: MIC, clinical bacterial strain; assay type: cell-based
Protocol: as §1, §2

[8] = test system: E. coli 116878; assay: MIC, clinical bacterial strain; assay type: cell-based
Protocol: as §1, §2

[9] = test system: S. typhimurium 365; assay: MIC, clinical bacterial strain; assay type: cell-based
Protocol: as §1, §2

[10] = test system: A. baumannii 3879; assay: MIC, clinical bacterial strain; assay type: cell-based
Protocol: as §1, §2

[11] = test system: E. coli cf073; assay: MIC, clinical bacterial strain; assay type: cell-based
Protocol: as §1, §2

[12] = test system: S. typhimurium 324; assay: MIC, clinical bacterial strain; assay type: cell-based
Protocol: as §1, §2

[13] = test system: Shigella flexneri; conditions: 50 μL from MIC wells seeded into Petri plates, 24 h; lowest concentration without detectable growth
Protocol: The antibiotic activity was defined by the minimum peptide concentration where the microorganism is unable to grow. The assay was done in polypropylene 96-well plates (Greiner, Frickenhausen, Germany) to avoid peptide binding to plate wells. Peptides were dissolved in water containing 0.4% w/v bovine serum albumin (BSA) and 0.02% v/v glacial acetic acid to prevent self-aggregation, following the reference protocol by Wiegand et al.,[42] based on the classical microtiter broth dilution recommended by the National Committee of Laboratory Safety and Standards (NCLSS). Initial bacteria inoculum was adjusted to 5 × 10^5 CFU/mL in Mueller-Hinton (MH) medium. Incubations were kept at 37 °C for 24 h. Results are the average of three independent studies. […] To determine the MBC, 50 μL from all wells were seeded into Petri plates and incubated for 24 h. The MBC concentration was attributed to the lowest concentration without detectable bacterial growth for each peptide.

[14] = test system: S. flexneri; conditions: 24 h
Source text: Purified horse red blood cells were acquired from Thermo Fisher Scientific (Hampshire, England). Human serum was purchased from Sigma (St Louis, USA). E. coli was obtained from the Coli Genetic Stock Center (BW25113). S. flexneri (ATCC 29903), A. baumannii (ATCC 15308), Pseudomonas sp. (ATCC 15915), and S. enterica (ATCC 14028) were obtained from the CECT (Valencia, Spain). Clinical strains were supplied by the Vall d’Hebron Hospital (Barcelona, Spain). MRC5 fibroblasts were obtained from the Cytometry and Cell Culture Facility (SCAC, UAB) and originally purchased from ATCC.
The antibiotic activity was defined by the minimum peptide concentration where the microorganism is unable to grow. The assay was done in polypropylene 96-well plates (Greiner, Frickenhausen, Germany) to avoid peptide binding to plate wells. Peptides were dissolved in water containing 0.4% w/v bovine serum albumin (BSA) and 0.02% v/v glacial acetic acid to prevent self-aggregation, following the reference protocol by Wiegand et al.,[42] based on the classical microtiter broth dilution recommended by the […]. Initial bacteria inoculum was adjusted to 5 × 10^5 CFU/mL in Mueller-Hinton (MH) medium. Incubations were kept at 37 °C for 24 h. Results are the average of three independent studies. MIC assays in the presence of serum were performed by incubating the peptide with human serum at a 1:1 ratio. Then, 10^6 cfu/mL of Pseudomonas sp. were incubated with serial dilutions of the peptides for 4 h. To determine the MBC, 50 μL from all wells were seeded into Petri plates and incubated for 24 h. The MBC concentration was attributed to the lowest concentration without detectable bacterial growth for each peptide.

[15] = Cytotoxicity in mammalian cells (MTT assay); assay type: cell-based; conditions: MRC-5 cytotoxicity (IC50)
Protocol: (§3) MRC-5 cells were grown in Eagle’s minimum essential medium (MEMα), supplemented with 10% fetal bovine serum (FBS). 96-well plates were seeded with 3 × 10^4 cells/well and cultured overnight in order to get cells adhered into the plate and then incubated with two-fold peptide serial dilutions. After 4 h of incubation, the medium containing the peptides was replaced by MEMα supplemented with FBS and 3-(4,5-dimethylthiazol-2-yl)-2,5-diphenyltetrazolium bromide (MTT) at 0.4 mg/mL and incubated for 150 min. Detection of formazan crystals in the living cells was done by cell disruption by addition of 200 μL of dimethyl sulfoxide (DMSO) followed by absorbance measuring at 600 nm in a Tecan Infinite F Nano+ microplate reader (Tecan, Germany). Results are the average of three independent studies.

[16] = test system: S. enterica; assay type: cell-based, Salmonella enterica; conditions: 24 h
Protocol: as §1, §2

[17] = test system: horse red blood cells; assay: Hemolytic activity; assay type: cell-based; conditions: red cells of horse, 4 h
Protocol: The peptide toxicity was determined detecting the disruption of horse red blood cells, following a previous assay report.[35] 10-fold diluted cells in PBS were centrifuged three times at 800g to eliminate the hemoglobin from disrupted cells. After the last resuspension, erythrocytes were incubated with the peptides for 4 h at 37 °C. The detection was done measuring the supernatant absorbance in a VICTOR3 multilabel plate reader (Perkin Elmer, Waltham, Massachusetts) at 540 nm in a microplate reader. Percentage of hemolysis was calculated through a pattern done with dilutions of total cell lysis done with a 1% Triton X-100 buffer. Results are the average of three independent studies.

[18] = test system: Salmonella enterica; assay type: cell-based; conditions: 24 h
Protocol: as §2

[19] = test system: Escherichia coli; assay type: cell-based; conditions: 24 h
Protocol: as §2

[20] = test system: Acinetobacter baumannii; assay type: cell-based; conditions: 24 h
Protocol: as §2

[21] = test system: A. baumannii; assay type: cell-based, Acinetobacter baumannii; conditions: 24 h
Protocol: as §1, §2

[22] = test system: E. coli; assay type: cell-based, Escherichia coli; conditions: 24 h
Protocol: as §1, §2

[23] = test system: MRC-5 cells; assay: Cytotoxicity in mammalian cells (MTT assay); assay type: cell-based; conditions: 4 h
Protocol: as §3

[24] = test system: Pseudomonas sp.; assay: MIC of peptides incubated with human serum; assay type: cell-based; conditions: peptide incubated with human serum 1:1; 10^6 cfu/mL Pseudomonas sp., 4 h
Protocol: as §2

[25] = 50 μL from MIC wells seeded into Petri plates, lowest concentration without detectable growth
[26] = A. baumannii ATCC 15308, Mueller-Hinton medium, 5 × 10^5 CFU/mL, 37 °C, average of three independent studies

CC[C@H](C)[C@H](NC(=O)[C@H](C)NC(=O)[C@H](CCCN)NC(=O)[C@H](CCSC)NC(=O)[C@H](C)NC(=O)[C@@H](NC(=O)[C@@H](NC(=O)[C@H](CCCN)NC(=O)[C@@H]1CCCN1C(=O)[C@H](CO)NC(=O)[C@@H](NC(=O)[C@H](Cc1c[nH]cn1)NC(=O)[C@H](CCC(N)=O)NC(=O)[C@@H](NC(=O)[C@H](C)NC(=O)[C@H](Cc1ccccc1)NC(=O)[C@H](Cc1c[nH]c2ccccc12)NC(=O)[C@H](CCC(N)=O)NC(=O)[C@H](C)NC(=O)[C@H](CCCN)NC(=O)[C@@H](NC(=O)[C@H](Cc1ccccc1)NC(=O)[C@H]1CCCN1C(=O)[C@@H](N)CCCN)[C@@H](C)O)[C@@H](C)CC)[C@@H](C)CC)[C@@H](C)O)[C@@H](C)CC)C(=O)N[C@@H](CC(N)=O)C(=O)N[C@@H](CC(N)=O)C(=O)N[C@@H](Cc1ccc(O)cc1)C(=O)N[C@@H](CCCN)C(=O)N[C@@H](Cc1c[nH]c2ccccc12)C(=O)N[C@@H](CCCN)C(N)=O [peptide 6] (H-[Orn][dP]FT[Orn]AQWFAIQHISP[Orn]TIAM[Orn]AINNY[Orn]W[Orn]-NH2)
MIC Pseudomonas sp. [1]: 1.56 µM (≈ 5.47 µg/mL) | MBC Pseudomonas sp. [2]: 1.56 µM (≈ 5.47 µg/mL) | MIC P. aeruginosa 827632 [3]: >100 µM | MIC A. baumannii 3880 [4]: 12.5 µM (≈ 43.8 µg/mL) | MIC A. baumannii 3878 [5]: 0.78 µM (≈ 2.73 µg/mL) | MIC P. aeruginosa 827651 [6]: 25 µM (≈ 87.6 µg/mL) | MIC A. baumannii 3862 [7]: 1.56 µM (≈ 5.47 µg/mL) | MIC E. coli 116878 [8]: 25 µM (≈ 87.6 µg/mL) | MIC S. typhimurium 365 [9]: 25 µM (≈ 87.6 µg/mL) | MIC A. baumannii 3879 [10]: 3.13 µM (≈ 11 µg/mL) | MIC E. coli cf073 [11]: 6.25 µM (≈ 21.9 µg/mL) | MIC S. typhimurium 324 [12]: 25 µM (≈ 87.6 µg/mL) | MBC Shigella flexneri [13]: 50 µM (≈ 175 µg/mL) | MIC S. flexneri [14]: 50 µM (≈ 175 µg/mL) | IC50 [15]: 230 ± 40 µM | MIC S. enterica [16]: 50 µM (≈ 175 µg/mL) | hemolysis % (250 μM peptide) [17]: 1.1 ± 0.9% | MBC Salmonella enterica [18]: 50 µM (≈ 175 µg/mL) | MBC Escherichia coli [19]: 3.13 µM (≈ 11 µg/mL) | MBC Acinetobacter baumannii [20]: 12.5 µM (≈ 43.8 µg/mL) | MIC A. baumannii [21]: 12.5 µM (≈ 43.8 µg/mL) | MIC E. coli [22]: 3.13 µM (≈ 11 µg/mL)

CC[C@H](C)[C@H](NC(=O)[C@H](C)NC(=O)[C@H](CCCN)NC(=O)[C@H](CCSC)NC(=O)[C@H](C)NC(=O)[C@@H](NC(=O)[C@@H](NC(=O)[C@H](CCCN)NC(=O)[C@@H]1CCCN1C(=O)[C@H](CO)NC(=O)[C@@H](NC(=O)[C@H](Cc1c[nH]cn1)NC(=O)[C@H](CCC(N)=O)NC(=O)[C@@H](NC(=O)[C@H](C)NC(=O)[C@H](Cc1ccccc1)NC(=O)[C@H](Cc1c[nH]c2ccccc12)NC(=O)[C@H](CCC(N)=O)NC(=O)[C@H](C)NC(=O)[C@H](CCCN)NC(=O)[C@@H](NC(=O)[C@H](Cc1ccccc1)NC(=O)[C@H]1CCCN1C(=O)[C@H](N)CCCN)[C@@H](C)O)[C@@H](C)CC)[C@@H](C)CC)[C@@H](C)O)[C@@H](C)CC)C(=O)N[C@@H](CC(N)=O)C(=O)N[C@@H](CC(N)=O)C(=O)N[C@@H](Cc1ccc(O)cc1)C(=O)N[C@@H](CCCN)C(=O)N[C@@H](Cc1c[nH]c2ccccc12)C(=O)N[C@@H](CCCN)C(N)=O [peptide 7] (H-[dOrn][dP]FT[Orn]AQWFAIQHISP[Orn]TIAM[Orn]AINNY[Orn]W[Orn]-NH2)
MIC Pseudomonas sp. [1]: 1.56 µM (≈ 5.47 µg/mL) | MBC Pseudomonas sp. [2]: 1.56 µM (≈ 5.47 µg/mL) | MIC P. aeruginosa 827632 [3]: 25 µM (≈ 87.6 µg/mL) | MIC A. baumannii 3880 [4]: 6.25 µM (≈ 21.9 µg/mL) | MIC A. baumannii 3878 [5]: 0.78 µM (≈ 2.73 µg/mL) | MIC P. aeruginosa 827651 [6]: 100 µM (≈ 351 µg/mL) | MIC A. baumannii 3862 [7]: 0.78 µM (≈ 2.73 µg/mL) | MIC E. coli 116878 [8]: 6.25 µM (≈ 21.9 µg/mL) | MIC S. typhimurium 365 [9]: 25 µM (≈ 87.6 µg/mL) | MIC A. baumannii 3879 [10]: 1.56 µM (≈ 5.47 µg/mL) | MIC E. coli cf073 [11]: 3.13 µM (≈ 11 µg/mL) | MIC S. typhimurium 324 [12]: 25 µM (≈ 87.6 µg/mL) | MBC Shigella flexneri [13]: 6.25 µM (≈ 21.9 µg/mL) | MIC S. flexneri [14]: 6.25 µM (≈ 21.9 µg/mL) | IC50 [23]: 170 ± 20 µM | IC50 [15]: ≤ 230 µM | MIC S. enterica [16]: 25 µM (≈ 87.6 µg/mL) | hemolysis % (250 μM peptide) [17]: 3.6 ± 0.7% | MBC Salmonella enterica [18]: 25 µM (≈ 87.6 µg/mL) | MBC Escherichia coli [19]: 3.13 µM (≈ 11 µg/mL) | MBC Acinetobacter baumannii [20, 25]: 6.25 µM (≈ 21.9 µg/mL) | MIC A. baumannii [21, 26]: 6.25 µM (≈ 21.9 µg/mL) | MIC E. coli [22]: 3.13 µM (≈ 11 µg/mL)

RPFTRAQWFAIQHISPRTIAMRAINNYRWR-NH2 [peptide 1, hECP30]
MIC Pseudomonas sp. [1]: 1.56 µM | MBC Pseudomonas sp. [2]: 1.56 µM | MIC P. aeruginosa 827632 [3]: 12.5 µM | MIC A. baumannii 3880 [4]: 1.56 µM | MIC A. baumannii 3878 [5]: 1.56 µM | MIC P. aeruginosa 827651 [6]: 25 µM | MIC A. baumannii 3862 [7]: 0.78 µM | MIC E. coli 116878 [8]: 6.25 µM | MIC S. typhimurium 365 [9]: 6.25 µM | MIC A. baumannii 3879 [10]: 1.56 µM | MIC E. coli cf073 [11]: 3.13 µM | MIC S. typhimurium 324 [12]: 6.25 µM | MBC Shigella flexneri [13]: 3.13 µM | MIC S. flexneri [14]: 3.13 µM | IC50 [15]: 23 ± 4 µM | MIC S. enterica [16]: 12.5 µM | hemolytic activity at 10-fold the MIC [17]: below 10% | MBC Salmonella enterica [18]: 12.5 µM | MBC Escherichia coli [19]: 1.56 µM | MBC Acinetobacter baumannii [20, 25]: 1.56 µM | MIC A. baumannii [21, 26]: 1.56 µM | MIC in Pseudomonas sp., peptides incubated with human serum [24]: 25 µM | MIC E. coli [22]: 1.56 µM
